Assay results published in patent publication US20250066363A1, “Bicyclic DGK Inhibitors” (Incyte Corporation, priority 2023, published 2025).

Legend:
DGKα = DGKα (Homo sapiens (Human), UniProt P23743); experiment: In vitro DGKα inhibition assay (ADP-Glo); format: biochemical; details: first column of Table A; His-tagged human recombinant DGKα 0.1 nM, 50 μM ATP, 20 μM DLG
Method: (§1) The DGKα and DGKζ biochemical reactions were performed using His-tagged human recombinant enzymes (Signal Chem, DGKα, #D21-10BH; DGKζ, #D30-1OH)) and DLG (Dilauroyl-sn-glycerol) lipid substrate (Signal Chem, #D430-59). ADP-Glo assay was performed using ADP-Glo™ kinase Assay kit (Promega, #V9104). The reactions were carried out in assay buffer containing 40 mM Tris, pH 7.5, 0.1% CHAPS, 0.1% Prionex, 40 mM NaCl, 5 mM MgCl2, 1 mM CaCl2, and 1 mM DTT. DGKα reactions contained 0.1 nM DGKα, 50 μM ATP, and 20 μM DLG. And DGKζ reactions contained 0.4 nM DGKζ, 30 μM ATP, and 20 μM DLG.
(§2) For compound inhibition studies, 40 nL test compound in DMSO was added to wells of white polystyrene plates in 384-well (Greiner, #784075) or 1536-well format (Greiner, #782075). Compounds were added with top concentration of 2 mM with 11 point, 3-fold dilution series. Enzyme solution (contains 2× DGK enzyme concentration in 1× assay buffer) was added to the plate in 2 μL/well volume, followed by 2 μL/well of substrate solution (contains 2× concentration of ATP and DLG substrate in 1× assay buffer). Plates were then centrifuged for 1 min at 1200 RPM and sealed or lidded. For 4 μL reaction volume, test compounds were therefore diluted 100× to final top concentration of 20 μM. After 90 minute incubation, reactions were quenched by addition of 2 μL/well Promega ADP-Glo Reagent, followed by centrifugation and lidding. After 60 min incubation, 2 μL/well Promega Kinase Detection Reagent was added, plates centrifuged, and incubated for 30 min. Plates were then read using Luminescence method on BMG PHERAstar FSX plate reader. Percent inhibition was calculated and IC50s were determined using 4-parameter fit in Genedata Screener. Labcyte Echo acoustic dispenser was used for compound addition, and Formulatrix Tempest liquid handler was used for all reagent dispenses.

DGKζ = DGKζ (Homo sapiens (Human), UniProt Q13574); experiment: In vitro DGKζ inhibition assay (ADP-Glo); format: biochemical; details: second column of Table A, head printed DGKα, presumably DGKζ; His-tagged human recombinant DGKζ 0.4 nM, 30 μM ATP, 20 μM DLG
Chain of DGKζ (Q13574 whole entry): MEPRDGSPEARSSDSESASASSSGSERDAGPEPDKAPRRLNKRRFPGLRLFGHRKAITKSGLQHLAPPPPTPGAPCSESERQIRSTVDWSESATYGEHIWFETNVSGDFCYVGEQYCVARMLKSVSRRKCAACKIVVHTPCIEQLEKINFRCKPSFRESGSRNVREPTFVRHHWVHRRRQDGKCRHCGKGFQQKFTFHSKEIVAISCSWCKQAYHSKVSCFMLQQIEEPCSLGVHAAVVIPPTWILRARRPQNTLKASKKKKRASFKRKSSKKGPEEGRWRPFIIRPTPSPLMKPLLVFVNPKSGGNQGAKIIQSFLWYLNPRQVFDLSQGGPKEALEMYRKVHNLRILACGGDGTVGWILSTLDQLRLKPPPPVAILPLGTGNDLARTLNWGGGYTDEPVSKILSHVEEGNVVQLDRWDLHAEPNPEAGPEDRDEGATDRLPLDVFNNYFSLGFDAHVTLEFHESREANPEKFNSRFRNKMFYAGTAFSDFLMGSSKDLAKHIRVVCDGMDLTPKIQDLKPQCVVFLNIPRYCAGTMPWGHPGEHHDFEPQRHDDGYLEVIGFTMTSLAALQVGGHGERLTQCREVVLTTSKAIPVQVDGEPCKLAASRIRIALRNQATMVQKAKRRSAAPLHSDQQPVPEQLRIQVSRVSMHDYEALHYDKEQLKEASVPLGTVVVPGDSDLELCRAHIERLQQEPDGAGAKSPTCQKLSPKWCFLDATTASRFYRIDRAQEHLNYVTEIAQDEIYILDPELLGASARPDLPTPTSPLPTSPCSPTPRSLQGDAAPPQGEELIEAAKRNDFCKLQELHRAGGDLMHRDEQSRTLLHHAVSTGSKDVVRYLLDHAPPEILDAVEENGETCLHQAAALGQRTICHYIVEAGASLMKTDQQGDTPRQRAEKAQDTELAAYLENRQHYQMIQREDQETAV
Method: as §1, §2

Chain of DGKα (P23743 whole entry): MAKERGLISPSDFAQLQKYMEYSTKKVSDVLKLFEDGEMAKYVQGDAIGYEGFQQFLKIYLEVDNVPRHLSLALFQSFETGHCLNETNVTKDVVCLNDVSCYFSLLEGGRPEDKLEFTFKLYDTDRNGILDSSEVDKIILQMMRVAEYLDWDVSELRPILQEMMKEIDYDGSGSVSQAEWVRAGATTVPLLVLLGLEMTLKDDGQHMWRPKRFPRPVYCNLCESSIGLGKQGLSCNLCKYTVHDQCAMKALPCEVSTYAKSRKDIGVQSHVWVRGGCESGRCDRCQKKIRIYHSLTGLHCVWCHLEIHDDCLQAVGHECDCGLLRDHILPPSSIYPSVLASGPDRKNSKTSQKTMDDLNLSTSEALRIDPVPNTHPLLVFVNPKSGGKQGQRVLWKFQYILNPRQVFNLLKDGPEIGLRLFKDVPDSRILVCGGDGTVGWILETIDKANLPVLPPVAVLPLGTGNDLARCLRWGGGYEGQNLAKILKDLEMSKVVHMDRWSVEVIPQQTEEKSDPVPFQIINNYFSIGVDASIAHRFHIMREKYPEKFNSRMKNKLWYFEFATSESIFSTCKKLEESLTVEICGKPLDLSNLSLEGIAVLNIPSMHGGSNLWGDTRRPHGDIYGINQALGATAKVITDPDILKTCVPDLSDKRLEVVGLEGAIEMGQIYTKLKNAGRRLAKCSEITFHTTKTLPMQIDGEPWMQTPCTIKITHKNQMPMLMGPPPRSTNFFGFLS

IC50 (DGKα) | IC50 (DGKζ) | Compound
≤ 10 nM | ≤ 10 nM | CC[C@@H]1CN(c2nc(=O)n(C)c3c2nc(C)n3C[C@@H]2CCCO2)[C@@H](C)CN1[C@@H](CC)c1ccc(C(F)(F)F)cc1 [Example 28, 6-((2S,5R)-5-Ethyl-2-methyl-4-((S)-1-(4-(trifluoromethyl)phenyl)propyl)piperazin-1-yl)-3,8-dimethyl-9-(((S)-tetrahydrofuran-2-yl)methyl)-3,9-dihydro-2H-purin-2-one]
≤ 10 nM | ≤ 10 nM | CC[C@@H]1CN(c2nc(=O)n(C)c3c2nc(C)n3C[C@@H]2CCCO2)[C@@H](C)CN1[C@H](CC)c1ccc(C(F)(F)F)cc1 [Example 29, 6-((2S,5R)-5-ethyl-2-methyl-4-((R)-1-(4-(trifluoromethyl)phenyl)propyl)piperazin-1-yl)-3,8-dimethyl-9-(((S)-tetrahydrofuran-2-yl)methyl)-3,9-dihydro-2H-purin-2-one]
≤ 10 nM | ≤ 10 nM | CC[C@@H]1CN(c2nc(=O)n(C)c3c2nnn3C[C@H]2CCCO2)[C@@H](C)CN1[C@@H](CC)c1ccc(C(F)(F)F)cc1 [Example 30, 7-((2S,5R)-5-Ethyl-2-methyl-4-((S)-1-(4-(trifluoromethyl)phenyl)propyl)piperazin-1-yl)-4-methyl-3-(((R)-tetrahydrofuran-2-yl)methyl)-3,4-dihydro-5H-[1,2,3]triazolo[4,5-d]pyrimidin-5-one]
≤ 10 nM | ≤ 10 nM | CC[C@@H]1CN(c2nc(=O)n(C)c3c2nnn3C[C@H]2CCCO2)[C@@H](C)CN1[C@H](CC)c1ccc(C(F)(F)F)cc1 [Example 31, 7-((2S,5R)-5-ethyl-2-methyl-4-((R)-1-(4-(trifluoromethyl)phenyl)propyl)piperazin-1-yl)-4-methyl-3-(((R)-tetrahydrofuran-2-yl)methyl)-3,4-dihydro-5H-[1,2,3]triazolo[4,5-d]pyrimidin-5-one]

The remaining lines, values behind:

Compound | IC50 (DGKα) | IC50 (DGKζ)
CC[C@@H]1CN(c2nc(=O)n(C)c3c2nnn3C[C@H]2CCCO2)[C@@H](C)CN1[C@@H](CC)c1ccc(Cl)cc1 [Example 26, 7-((2S,5R)-4-((S)-1-(4-Chlorophenyl)propyl)-5-ethyl-2-methylpiperazin-1-yl)-4-methyl-3-(((R)-tetrahydrofuran-2-yl)methyl)-3,4-dihydro-5H-[1,2,3]triazolo[4,5-d]pyrimidin-5-one] | ≤ 10 nM | ≤ 10 nM
CC[C@@H]1CN(c2nc(=O)n(C)c3c2nnn3C[C@H]2CCCO2)[C@@H](C)CN1[C@H](CC)c1ccc(Cl)cc1 [Example 27, 7-((2S,5R)-4-((R)-1-(4-chlorophenyl)propyl)-5-ethyl-2-methylpiperazin-1-yl)-4-methyl-3-(((R)-tetrahydrofuran-2-yl)methyl)-3,4-dihydro-5H-[1,2,3]triazolo[4,5-d]pyrimidin-5-one] | ≤ 10 nM | ≤ 100 nM
C[C@@H]1CN(c2nc(=O)n(C)c3c2nnn3C[C@@H]2CCCO2)[C@@H](C)CN1C(c1ccc(C(F)(F)F)cn1)c1ccc(C(F)(F)F)cn1 [Example 32, 7-((2S,5R)-4-(Bis(5-(trifluoromethyl)pyridin-2-yl)methyl)-2,5-dimethylpiperazin-1-yl)-4-methyl-3-(((S)-tetrahydrofuran-2-yl)methyl)-3,4-dihydro-5H-[1,2,3]triazolo[4,5-d]pyrimidin-5-one] | ≤ 10 nM | ≤ 10 nM
C[C@@H]1CN(c2nc(=O)n(C)c3c2nnn3C[C@H]2CCCO2)[C@@H](C)CN1C(c1ccc(C(F)(F)F)cn1)c1ccc(C(F)(F)F)cn1 [Example 33, 7-((2S,5R)-4-(Bis(5-(trifluoromethyl)pyridin-2-yl)methyl)-2,5-dimethylpiperazin-1-yl)-4-methyl-3-(((R)-tetrahydrofuran-2-yl)methyl)-3,4-dihydro-5H-[1,2,3]triazolo[4,5-d]pyrimidin-5-one] | ≤ 10 nM | ≤ 10 nM
